Test system: Type 2-diabetes model mice KK-Ay/Ta Jc1
Experiment: Study on hyperlipemia-ameliorating effects (plasma neutral fat, total cholesterol, free fatty acid, visceral fat, body weight)
Format: in vivo
Details: for Body weight (average g/±SD) / Neutral fat level (average mg/dL ± SD) / Free fatty acid level (average mEq/L ± SD) / Total cholesterol level (average mg/dL ± SD) / Visceral fat level (average g ± SD): 0.05% by mass in feed CE2, 5 days; for Body weight (average g/±SD) / Neutral fat level (average mg/dL ± SD): overnight fast; for Body weight (average g/±SD): control group 52.3 ± 4.2; for cholesterol level-regulating effect compared with the control group / free fatty acid level-regulating effect compared with the control group / reduction in body weight compared with the control group / reduction in the visceral fat level compared with the control group / neutral fat level-regulating effect compared with the control group: in words, 0.05% (aglycons) or 1.0% by mass (products) in feed, 5 days; for neutral fat level-regulating effect compared with the control group: Dunnett's test; for Neutral fat level (average mg/dL ± SD) / Free fatty acid level (average mEq/L ± SD) / Total cholesterol level (average mg/dL ± SD): plasma; for Neutral fat level (average mg/dL ± SD): control group 407.3 ± 20.9; for Free fatty acid level (average mEq/L ± SD): control group 1.95 ± 0.3; for Total cholesterol level (average mg/dL ± SD): control group 195.5 ± 10.7; for Visceral fat level (average g ± SD): retroperitoneal + epididymal + perirenal fat, control group 8.2 ± 1.0
Source text: Protopanaxatriol (PPT) (product of Funakoshi Corporation), panaxatriol (PT) (product of Funakoshi Corporation), protopanaxadiol (PPD) (product of Funakoshi Corporation) and panaxadiol (PD) (product of Funakoshi Corporation) were each added to feed CE2 (product of CLEA Japan, Inc.) so that the concentration thereof was 0.05% by mass.
Similarly, the strong acid-treated Panax notoginseng product (Production Example 1) and Panax notoginseng powder (product of MATSUURA YAKUGYO CO., LTD.) were each added to feed CE2 (product of CLEA Japan, Inc.) so that the concentration thereof was 1.0% by mass.
Feed CE2 (product of CLEA Japan, Inc.) containing no other additives was used as feed for the control group.
Type 2-diabetes model mice KK-Ay/Ta Jc1 (male, 4 weeks old, 8 mice/group, product of CLEA Japan, Inc.) were preliminarily bred for 7 days. Thereafter, they were bred for 5 days with the above-prepared feed CE2, containing no other additives or containing PPT, PT, PPD, PD, the strong acid-treated Panax notoginseng product or Panax notoginseng powder.
The mice bred for 5 days in the above-described manner were measured for the body weight after an overnight fast. The blood was collected from them. The collected blood sample was used to measure the plasma neutral-fat level with […] (product of Wako Pure Chemical Industries, Ltd.), the plasma total-cholesterol level with CHOLESTEROL E-TEST WAKO (product of Wako Pure Chemical Industries, Ltd.) and the plasma free-fatty-acid level with […] (product of Wako Pure Chemical Industries, Ltd.). In addition, retroperitoneal fat, fat surrounding the epididymis, and fat surrounding the kidney were sampled and weighed. The total mass thereof was used as the visceral fat level. The above-measured plasma neutral-fat level, plasma total-cholesterol level, plasma free-fatty-acid level, visceral fat level and body weight were verified using the Dunnett's multiple test. A p value of 0.05 or lower was considered statistically significant.

Structure (SMILES)	Body weight (average g/±SD)	cholesterol level-regulating effect compared with the control group	free fatty acid level-regulating effect compared with the control group	reduction in body weight compared with the control group	reduction in the visceral fat level compared with the control group	neutral fat level-regulating effect compared with the control group	Neutral fat level (average mg/dL ± SD)	Free fatty acid level (average mEq/L ± SD)	Total cholesterol level (average mg/dL ± SD)	Visceral fat level (average g ± SD)
CC(C)=CCCC(C)(O)[C@H]1CC[C@]2(C)[C@@H]1[C@H](O)C[C@@H]1[C@@]3(C)CC[C@H](O)C(C)(C)[C@@H]3CC[C@]12C (stereo in doubt) [PPD, protopanaxadiol]	46.8 ± 2.6 g	significantly superior to that of the control group	significantly superior to that of the control group	significant reduction in body weight	significant reduction in the visceral fat level	significantly superior to that of the control group	151.4 ± 26.9 mg/dL	0.81 ± 0.08 mEq/L	123.2 ± 19.6 mg/dL	5.9 ± 1.3 g
CC1(C)CCC[C@](C)([C@H]2CC[C@]3(C)[C@@H]2[C@H](O)C[C@@H]2[C@@]4(C)CC[C@H](O)C(C)(C)[C@@H]4CC[C@]23C)O1 [PD, panaxadiol]	47.3 ± 1.9 g	significantly superior to that of the control group	significantly superior to that of the control group	significant reduction in body weight	significant reduction in the visceral fat level	significantly superior to that of the control group	180.7 ± 34.2 mg/dL	1.04 ± 0.12 mEq/L	101.5 ± 15.6 mg/dL	5.5 ± 1.6 g
CC(C)=CCC[C@](C)(O)[C@H]1CC[C@]2(C)[C@@H]1[C@H](O)C[C@@H]1[C@@]3(C)CC[C@H](O)C(C)(C)[C@@H]3[C@@H](O)C[C@]12C [PPT, Protopanaxatriol]	45.3 ± 2.2 g	significantly superior to that of the control group	significantly superior to that of the control group	significant reduction in body weight	significant reduction in the visceral fat level	significantly superior to that of the control group	138.5 ± 25.3 mg/dL	0.93 ± 0.08 mEq/L	128.3 ± 17.8 mg/dL	5.5 ± 1.3 g
CC1(C)CCC[C@](C)([C@H]2CC[C@]3(C)[C@@H]2[C@H](O)C[C@@H]2[C@@]4(C)CC[C@H](O)C(C)(C)[C@@H]4[C@@H](O)C[C@]23C)O1 [PT, panaxatriol]	43.9 ± 2.8 g	significantly superior to that of the control group	significantly superior to that of the control group	significant reduction in body weight	significant reduction in the visceral fat level	significantly superior to that of the control group	163 ± 32.8 mg/dL	0.84 ± 0.07 mEq/L	102.9 ± 16.7 mg/dL	–

Source: patent publication US8927033B2, “Hyperlipemia-ameliorating agent, anemia-ameliorating composition, uric-acid-level-reducing composition, and food or beverage” (Lion Corporation, priority 2009, dated 2015)
